The values that follow come from patent US20170190705A1, “Compositions and Methods for Inhibiting BMP” (THE BRIGHAM AND WOMAN'S HOSPITAL, INC., priority 2014, published 2017).

In assay [1] the target is DYRK1B (Homo sapiens, UniProt Q9Y463). The experiment in a line: Kinome profiling DYRK1B. Type of assay: biochemical. Conditions: read-out: Inhibitory activity DYRK1B; for inhibition at 0.1 µM: 100 nM. The procedure:
(§1) . The kinome-wide selectivity was determined following the methods previously reported by Mohedas et al., ACS Chem Biol 2013, 8, 1291-1302 and Sanvitale et al., PLoS One 2013, 8, e62721.

Assay [2] has as its target FGFR3 (Homo sapiens, UniProt P22607). The experiment in a line: Kinome profiling FGFR3. The assay is classed as biochemical. Conditions: read-out: Inhibitory activity FGFR3; for inhibition at 0.1 µM: 100 nM. The protocol: as §1
Assay [3] addresses CSK (Homo sapiens, UniProt P41240). The experiment in a line: Kinome profiling CSK. The assay is classed as biochemical. Conditions: read-out: Inhibitory activity CSK; for inhibition at 0.1 µM: 100 nM. The protocol:
as §1

Assay [4] has as its target ROCK2 (Homo sapiens, UniProt O75116). The assay can be described thus: Kinome profiling ROCK2. The assay is classed as biochemical. Conditions: read-out: Inhibitory activity ROCK2; for inhibition at 0.1 µM: 100 nM. The procedure: as §1
The target in assay [5] is SPHK1 (Homo sapiens, UniProt Q9NYA1). The experiment in a line: Kinome profiling SPHK1. Type of assay: biochemical. Conditions: read-out: Inhibitory activity SPHK1; for inhibition at 0.1 µM: 100 nM. The procedure:
as §1

For assay [6], the target named is T1, ALK5 (Homo sapiens, UniProt P36897).
T1 construct: made in house
T1 sequence (P36897 34-503): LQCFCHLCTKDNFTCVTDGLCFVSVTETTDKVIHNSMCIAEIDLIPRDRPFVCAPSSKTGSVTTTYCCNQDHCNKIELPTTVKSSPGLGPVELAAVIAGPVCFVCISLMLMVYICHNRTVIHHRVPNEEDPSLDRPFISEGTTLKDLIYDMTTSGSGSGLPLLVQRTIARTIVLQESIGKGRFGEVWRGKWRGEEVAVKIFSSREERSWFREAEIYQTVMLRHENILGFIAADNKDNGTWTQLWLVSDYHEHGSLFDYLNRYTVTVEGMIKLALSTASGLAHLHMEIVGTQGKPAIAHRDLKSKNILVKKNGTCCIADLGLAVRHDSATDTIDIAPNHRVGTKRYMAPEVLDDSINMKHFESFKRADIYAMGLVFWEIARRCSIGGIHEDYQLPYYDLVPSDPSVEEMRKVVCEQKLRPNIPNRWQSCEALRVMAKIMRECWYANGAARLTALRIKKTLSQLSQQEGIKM
The experiment in a line: Thermal shift kinase assay ALK5. The assay is classed as binding. Conditions: for ΔTm at 10 µM: 10 μM inhibitor; for ΔT ALK5: Table 6. The protocol: Thermal melting experiments were performed using a Real Time PCR machine Mx3005p (Stratagene) with a protein concentration of 1-2 μM and 10 μM inhibitor as described by Niesen et al., Nat Protoc 2007, 2, 2212-21. Recombinant human kinases for DSF screening were prepared by SGC using the published methods of Sanvitale et al., PLoS One 2013, 8, e62721. The potency and selectivity of certain compounds of the invention based on thermal shift kinase and ligand induced transcriptional activity assays are shown in Table 2.

Assay [7] concerns the target TRKC (Homo sapiens, UniProt Q16288). The assay can be described thus: Kinome profiling TRKC. The assay is classed as biochemical. Conditions: read-out: Inhibitory activity TRKC; for inhibition at 0.1 µM: 100 nM. The procedure:
as §1

Assay [8] deals with PI3-K-δ (Homo sapiens, UniProt O00329). The assay can be described thus: Kinome profiling PI3-K-δ. The assay is classed as biochemical. Conditions: read-out: Inhibitory activity PI3-K-δ; for inhibition at 0.1 µM: 100 nM. The protocol: as §1
Chain of PI3-K-δ (O00329 whole entry): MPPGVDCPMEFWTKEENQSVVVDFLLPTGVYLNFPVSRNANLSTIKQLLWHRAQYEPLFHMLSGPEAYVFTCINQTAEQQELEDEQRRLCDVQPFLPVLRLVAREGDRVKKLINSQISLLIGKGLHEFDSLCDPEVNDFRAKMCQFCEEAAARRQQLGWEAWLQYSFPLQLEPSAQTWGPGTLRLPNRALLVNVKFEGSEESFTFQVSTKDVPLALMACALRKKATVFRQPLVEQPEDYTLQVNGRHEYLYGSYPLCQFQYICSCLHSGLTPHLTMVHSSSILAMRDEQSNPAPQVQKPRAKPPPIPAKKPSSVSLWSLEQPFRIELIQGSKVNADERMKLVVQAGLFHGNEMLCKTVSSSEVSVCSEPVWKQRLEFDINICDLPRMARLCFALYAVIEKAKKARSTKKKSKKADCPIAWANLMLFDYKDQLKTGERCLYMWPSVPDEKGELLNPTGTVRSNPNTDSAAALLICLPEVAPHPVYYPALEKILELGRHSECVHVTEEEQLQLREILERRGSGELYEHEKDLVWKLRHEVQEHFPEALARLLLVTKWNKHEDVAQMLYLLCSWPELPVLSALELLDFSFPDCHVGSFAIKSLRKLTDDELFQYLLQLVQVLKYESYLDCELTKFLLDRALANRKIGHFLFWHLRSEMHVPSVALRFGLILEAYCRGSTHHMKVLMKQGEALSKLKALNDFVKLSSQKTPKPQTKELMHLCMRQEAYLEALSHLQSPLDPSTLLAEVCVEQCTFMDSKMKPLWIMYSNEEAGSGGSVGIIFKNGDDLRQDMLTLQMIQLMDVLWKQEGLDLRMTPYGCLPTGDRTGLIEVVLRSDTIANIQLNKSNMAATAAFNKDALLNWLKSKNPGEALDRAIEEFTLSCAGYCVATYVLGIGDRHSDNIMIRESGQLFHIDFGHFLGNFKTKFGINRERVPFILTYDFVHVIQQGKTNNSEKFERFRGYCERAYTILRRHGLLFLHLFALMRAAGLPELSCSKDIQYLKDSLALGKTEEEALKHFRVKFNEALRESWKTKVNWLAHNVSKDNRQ
Chain of PI3-K-δ (P27986 whole entry partner): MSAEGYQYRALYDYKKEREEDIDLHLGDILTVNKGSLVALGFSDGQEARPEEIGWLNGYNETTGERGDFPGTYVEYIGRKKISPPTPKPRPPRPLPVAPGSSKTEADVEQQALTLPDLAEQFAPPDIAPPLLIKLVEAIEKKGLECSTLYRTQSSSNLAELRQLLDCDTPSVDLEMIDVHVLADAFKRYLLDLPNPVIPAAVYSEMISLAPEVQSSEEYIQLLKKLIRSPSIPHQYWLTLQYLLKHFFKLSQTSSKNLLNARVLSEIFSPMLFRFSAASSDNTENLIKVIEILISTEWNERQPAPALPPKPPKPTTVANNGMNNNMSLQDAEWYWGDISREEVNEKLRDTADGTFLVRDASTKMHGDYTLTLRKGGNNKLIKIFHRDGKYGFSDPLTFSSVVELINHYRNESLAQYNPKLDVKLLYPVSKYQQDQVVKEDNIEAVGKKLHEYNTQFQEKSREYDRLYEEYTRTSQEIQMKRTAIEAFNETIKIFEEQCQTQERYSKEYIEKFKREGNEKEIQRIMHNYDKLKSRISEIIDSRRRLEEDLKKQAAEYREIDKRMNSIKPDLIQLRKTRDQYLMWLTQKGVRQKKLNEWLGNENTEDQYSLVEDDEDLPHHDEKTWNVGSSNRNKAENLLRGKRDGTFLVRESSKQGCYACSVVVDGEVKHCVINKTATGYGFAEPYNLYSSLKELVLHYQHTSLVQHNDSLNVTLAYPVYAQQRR
The target of assay [9] is RSK1 (Homo sapiens, UniProt Q15418). The assay can be described thus: Kinome profiling RSK1. The assay is classed as biochemical. Conditions: read-out: Inhibitory activity RSK1; for inhibition at 0.1 µM: 100 nM. The protocol: as §1
Chain of RSK1 (Q15418 whole entry): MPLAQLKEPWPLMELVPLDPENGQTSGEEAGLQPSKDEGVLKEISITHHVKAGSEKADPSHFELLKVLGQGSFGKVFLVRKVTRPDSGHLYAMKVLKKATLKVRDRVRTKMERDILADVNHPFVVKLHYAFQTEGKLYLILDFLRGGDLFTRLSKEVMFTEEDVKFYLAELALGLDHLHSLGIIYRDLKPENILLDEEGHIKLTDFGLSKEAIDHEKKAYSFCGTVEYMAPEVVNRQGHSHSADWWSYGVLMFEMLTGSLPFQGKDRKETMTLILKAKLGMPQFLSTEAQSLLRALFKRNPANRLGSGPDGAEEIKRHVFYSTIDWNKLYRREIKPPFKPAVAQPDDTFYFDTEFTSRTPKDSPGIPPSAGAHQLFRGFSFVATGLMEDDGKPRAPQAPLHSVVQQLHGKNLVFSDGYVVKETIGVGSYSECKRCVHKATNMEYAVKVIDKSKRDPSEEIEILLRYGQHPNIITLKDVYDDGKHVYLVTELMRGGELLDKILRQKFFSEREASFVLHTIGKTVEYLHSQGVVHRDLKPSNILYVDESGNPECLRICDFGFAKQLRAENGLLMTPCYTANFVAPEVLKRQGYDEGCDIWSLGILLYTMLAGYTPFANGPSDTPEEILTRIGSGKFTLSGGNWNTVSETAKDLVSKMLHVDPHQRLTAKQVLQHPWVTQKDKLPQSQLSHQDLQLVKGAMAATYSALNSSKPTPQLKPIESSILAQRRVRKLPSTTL
Assay [10] has as its target T2, JAK3 (Homo sapiens, UniProt P52333).
T2 sequence (P52333 1-1124): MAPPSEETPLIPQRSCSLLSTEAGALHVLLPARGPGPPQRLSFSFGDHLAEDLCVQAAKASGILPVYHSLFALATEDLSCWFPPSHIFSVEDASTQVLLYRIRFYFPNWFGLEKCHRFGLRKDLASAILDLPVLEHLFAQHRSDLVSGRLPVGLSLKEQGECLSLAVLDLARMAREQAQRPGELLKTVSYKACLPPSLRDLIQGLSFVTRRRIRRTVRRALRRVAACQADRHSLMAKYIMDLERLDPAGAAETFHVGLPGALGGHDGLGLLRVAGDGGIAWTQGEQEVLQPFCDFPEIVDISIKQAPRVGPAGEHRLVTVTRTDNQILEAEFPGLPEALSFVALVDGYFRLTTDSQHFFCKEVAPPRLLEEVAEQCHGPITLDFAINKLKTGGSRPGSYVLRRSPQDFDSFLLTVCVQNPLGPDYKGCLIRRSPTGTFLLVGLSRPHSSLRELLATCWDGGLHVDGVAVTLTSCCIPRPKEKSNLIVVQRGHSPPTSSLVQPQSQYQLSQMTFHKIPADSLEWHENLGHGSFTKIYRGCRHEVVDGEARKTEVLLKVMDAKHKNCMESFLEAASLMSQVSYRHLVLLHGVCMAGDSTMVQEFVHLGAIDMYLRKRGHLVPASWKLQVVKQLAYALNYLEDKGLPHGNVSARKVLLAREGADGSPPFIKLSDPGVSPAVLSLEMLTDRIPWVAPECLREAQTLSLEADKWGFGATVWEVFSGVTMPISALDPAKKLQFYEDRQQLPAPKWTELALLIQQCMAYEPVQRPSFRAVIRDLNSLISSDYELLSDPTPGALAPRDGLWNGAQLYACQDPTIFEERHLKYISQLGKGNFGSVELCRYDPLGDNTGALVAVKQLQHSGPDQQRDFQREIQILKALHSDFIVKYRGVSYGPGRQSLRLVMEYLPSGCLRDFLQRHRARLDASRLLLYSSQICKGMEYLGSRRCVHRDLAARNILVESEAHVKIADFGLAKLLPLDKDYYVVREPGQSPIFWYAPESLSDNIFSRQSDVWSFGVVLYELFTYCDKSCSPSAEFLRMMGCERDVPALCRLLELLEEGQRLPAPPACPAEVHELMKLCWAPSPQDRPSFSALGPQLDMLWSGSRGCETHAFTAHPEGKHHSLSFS
The experiment in a line: Kinome profiling JAK3. The assay is classed as biochemical. Conditions: read-out: Inhibitory activity JAK3; for inhibition at 0.1 µM: 100 nM. The procedure: as §1

Assay [11] has as its target AKT3 (Homo sapiens, UniProt Q9Y243). The assay can be described thus: Kinome profiling AKT3. Type of assay: biochemical. Conditions: read-out: Inhibitory activity AKT3; for inhibition at 0.1 µM: 100 nM. The protocol: as §1

Chain of TRKC (Q16288 32-839): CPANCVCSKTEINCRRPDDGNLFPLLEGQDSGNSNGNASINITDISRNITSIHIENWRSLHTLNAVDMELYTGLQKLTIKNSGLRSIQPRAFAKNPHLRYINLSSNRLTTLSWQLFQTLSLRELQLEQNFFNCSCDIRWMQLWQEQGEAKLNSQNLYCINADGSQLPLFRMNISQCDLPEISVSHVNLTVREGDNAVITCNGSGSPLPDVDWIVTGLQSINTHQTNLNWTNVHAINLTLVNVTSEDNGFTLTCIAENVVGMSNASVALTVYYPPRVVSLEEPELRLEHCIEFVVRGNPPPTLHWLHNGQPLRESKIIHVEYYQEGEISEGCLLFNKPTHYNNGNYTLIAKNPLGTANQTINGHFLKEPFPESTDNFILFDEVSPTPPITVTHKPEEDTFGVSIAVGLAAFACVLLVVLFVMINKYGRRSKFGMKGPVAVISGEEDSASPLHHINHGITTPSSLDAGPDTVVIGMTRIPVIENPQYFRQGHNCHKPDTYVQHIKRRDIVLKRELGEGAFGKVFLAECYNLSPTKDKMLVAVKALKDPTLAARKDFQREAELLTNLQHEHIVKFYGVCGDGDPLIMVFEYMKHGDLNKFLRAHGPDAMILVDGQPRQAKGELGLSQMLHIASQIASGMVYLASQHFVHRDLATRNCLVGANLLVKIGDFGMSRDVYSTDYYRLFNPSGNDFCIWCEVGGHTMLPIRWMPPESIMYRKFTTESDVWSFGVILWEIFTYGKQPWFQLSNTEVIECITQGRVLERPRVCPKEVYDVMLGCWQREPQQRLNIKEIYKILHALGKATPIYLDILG
Chain of DYRK1B (Q9Y463 whole entry): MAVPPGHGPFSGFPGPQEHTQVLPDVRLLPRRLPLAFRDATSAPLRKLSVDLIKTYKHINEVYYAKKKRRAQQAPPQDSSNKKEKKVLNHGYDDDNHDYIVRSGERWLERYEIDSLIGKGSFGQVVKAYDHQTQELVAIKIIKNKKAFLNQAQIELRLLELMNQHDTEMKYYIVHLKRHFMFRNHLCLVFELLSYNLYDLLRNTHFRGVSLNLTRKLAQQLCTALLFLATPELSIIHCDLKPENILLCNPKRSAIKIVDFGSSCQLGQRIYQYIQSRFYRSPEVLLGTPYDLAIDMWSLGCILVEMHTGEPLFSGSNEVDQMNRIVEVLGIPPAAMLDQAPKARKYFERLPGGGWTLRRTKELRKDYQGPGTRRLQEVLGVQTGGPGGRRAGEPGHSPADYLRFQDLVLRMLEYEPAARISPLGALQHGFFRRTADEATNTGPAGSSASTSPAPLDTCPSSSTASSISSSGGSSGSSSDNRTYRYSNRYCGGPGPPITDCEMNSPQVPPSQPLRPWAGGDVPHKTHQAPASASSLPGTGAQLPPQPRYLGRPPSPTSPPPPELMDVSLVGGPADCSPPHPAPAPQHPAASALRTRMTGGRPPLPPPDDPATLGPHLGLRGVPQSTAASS
Chain of FGFR3 (P22607 23-806): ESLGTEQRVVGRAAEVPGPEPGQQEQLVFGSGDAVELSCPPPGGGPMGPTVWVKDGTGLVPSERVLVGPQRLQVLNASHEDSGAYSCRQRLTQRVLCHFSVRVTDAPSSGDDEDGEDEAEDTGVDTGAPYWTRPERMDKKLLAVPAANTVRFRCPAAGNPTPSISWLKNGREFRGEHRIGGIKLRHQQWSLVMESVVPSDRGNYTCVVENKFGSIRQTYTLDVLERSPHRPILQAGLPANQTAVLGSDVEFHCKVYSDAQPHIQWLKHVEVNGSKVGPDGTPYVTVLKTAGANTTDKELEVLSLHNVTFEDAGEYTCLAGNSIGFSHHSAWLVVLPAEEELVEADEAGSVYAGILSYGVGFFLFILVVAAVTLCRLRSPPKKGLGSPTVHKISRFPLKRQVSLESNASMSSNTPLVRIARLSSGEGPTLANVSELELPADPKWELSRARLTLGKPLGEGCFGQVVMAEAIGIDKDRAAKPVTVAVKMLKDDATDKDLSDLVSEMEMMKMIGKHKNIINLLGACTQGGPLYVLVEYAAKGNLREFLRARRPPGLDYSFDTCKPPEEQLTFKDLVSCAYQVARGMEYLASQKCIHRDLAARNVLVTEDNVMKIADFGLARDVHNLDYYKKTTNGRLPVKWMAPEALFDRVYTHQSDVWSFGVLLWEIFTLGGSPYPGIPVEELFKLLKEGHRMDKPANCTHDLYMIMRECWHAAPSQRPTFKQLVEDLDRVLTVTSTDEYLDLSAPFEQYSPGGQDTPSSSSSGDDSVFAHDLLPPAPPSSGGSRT

Regarding `COc1cc(-c2cc(-c3ccc(N4CCNCC4)cc3)cnc2C)cc(OC)c1OC` [Compound 10, 1-(4-(6-methyl-5-(3,4,5-trimethoxyphenyl)pyridin-3-yl)phenyl)piperazine], the inhibition at 0.1 µM in assay [1] turned out to be 2%; in assay [2], 0%; in assay [3], 4%; in [4], 4%; in [5] it was 0%; in assay [7] it was 4%. Moreover, the inhibition at 0.1 µM in assay [8] turned out to be 8%; in [9], 1%; in assay [10], 3%; in assay [11], 1%. For the same compound, the inhibition at 1 µM in [1] is 5%; in assay [2], 0%; in [3], 5%; in [4] it was 3%; in [5], 0%; in assay [7], 4%. Further, the inhibition at 1 µM is 7% in assay [8], 1% in assay [9], 3% in [10] and 1% in [11]. In addition, the ΔTm at 10 µM in assay [6] came out at 9.7 °C. The “ΔT ALK5” value in assay [6] stood at 9.7 °C.
Consider `COc1cc(-c2cc(-c3ccc(N4CCNCC4)cc3)cnc2N)cc(OC)c1OC` [Compound 15, 5-(4-(piperazin-1-yl)phenyl)-3-(3,4,5-trimethoxyphenyl)pyridin-2-amine], for which the inhibition at 0.1 µM in assay [1] was -1%; in [2], 2%; in assay [3], 10%; in assay [4], -1%; in assay [5], 2%; in [7] it was 3%. The inhibition at 0.1 µM in assay [8] worked out at 3%; in assay [9], 1%; in assay [10] it was 0%; in [11], 0%. For the same compound, the inhibition at 1 µM in assay [1] is 4%; in [2], 6%; in [3] it was 36%; in [4], 2%; in assay [5], -12%; in assay [7] it was 3%. In addition, the inhibition at 1 µM is 7% in assay [8], 5% in assay [9], 3% in [10] and 2% in assay [11]. In addition, in assay [6], the thermal shift (ΔTm) at 10 µM stood at 13.9 °C. Besides, the “ΔT ALK5” value in assay [6] stood at 13.9 °C.

The ΔTm is the change in melting temperature against a reference sample.
